According to patent publication US4053478A, “2,5-Di-substituted 4-oxazolealkanoic acids and esters” (Yoshitomi Pharmaceutical Industries, Ltd., priority 1974, dated 1977):

What was measured:
[1] = system: bleeding time induced by platelet thrombi; assay: Anti-thrombotic action: bleeding time induced by platelet thrombi, tail vein puncture (Table 4); format: in vivo; details: oral, one hour after administration, male mice
Description: The bleeding time induced by platelet thrombi was compared with that of the control group, and the rate of prolongation was calculated as an index of anti-thrombotic activity.

serum cholesterol level [2] = assay: Hypolipidemic action: Triton hyperlipidemia in male mice (Table 3); format: in vivo, dd-strain male mice; details: intraperitoneal, 18 hours after Triton
Description: iii. Triton hyperlipidemia in male mice (Table 3) Each group was composed of eight dd-strain male mice weighing 20-25 g. Immediately after intraperitoneal administration of the test compound to the animals, Triton WR-1339 was intraveniously given. Eighteen hours after Triton administration, the serum cholesterol level was measured and compared with that of the control group treated in the same way.

[3] = Acute toxicity, mouse (Table 5); details: in vivo, oral, lethality within two days, read-out: LD50 per os, Mouse
Description: (§1) The test compound was orally administered to groups each of 5 male mice and rats respectively. The LD50 was calculated from the lethal rate (50%) within two days after administration of the test compound.

[4] = Acute toxicity, rat (Table 5); details: in vivo, oral, lethality within two days, read-out: LD50 per os, Rat
Description: as §1

[5] = system: serum cholesterol and triglyceride levels; assay: Hypolipidemic action: male rats with normal serum lipid (Table 1); format: in vivo, Wistar strain male rats; details: 100 mg/kg/day, oral (gastric tube), 5 days, vs control
Description: i. Male rats with normal serum lipid (Table 1)
Each test group was composed of more than 5 rats. The test compound was orally given by a gastric tube. Serum cholesterol and triglyceride levels were measured by the standard methods using an autoanalyzer (Technicon Inc.). The levels in the control (placebo) group were considered as 100% and the reduction (%) in the test group was calculated.

serum cholesterol level [6] = assay: Hypolipidemic action: dietary hyperlipidemia in male mice (Table 2); format: in vivo, dd-strain male mice; details: 5 days
Description: ii. Dietary hyperlipidemia in male mice (Table 2)
dd-Strain male mice weighing 20-25 g. were used. Each group was composed of 8 mice. Animals were fed with NMF food (Oriental Yeast Co., Tokyo) containing 1% of cholesterol, 0.2% of cholic acid and 5% of olive oil, and the serum cholesterol level was measured by the use of an autoanalyzer after 5 days administration of the test compound. The levels in the test group was compared with that in the control group given the same diet.

SMILES	Prolongation Rate (%) of the Bleeding Time ([1]; 12.5 mg/kg/day)	Prolongation Rate (%) of the Bleeding Time ([1]; 25 mg/kg/day)	Prolongation Rate (%) of the Bleeding Time ([1]; 50 mg/kg/day)	Lowering Rate (%) of Serum Cholesterol Level (serum cholesterol level [2]; 25 mg/kg/day)	Lowering Rate (%) of Serum Cholesterol Level (serum cholesterol level [2]; 100 mg/kg/day)	LD50 at 48 h [3]	LD50 at 48 h [4]	Lowering Rate (%) of Serum Cholesterol Level [5]	Lowering Rate (%) of Serum Triglyceride Level [5]	Lowering Rate (%) of Serum Cholesterol Level (serum cholesterol level [6]; 100 mg/kg/day)	Prolongation Rate (%) of the Bleeding Time ([1]; 100 mg/kg/day)	Lowering Rate (%) of Serum Cholesterol Level (serum cholesterol level [6]; 50 mg/kg/day)	Lowering Rate (%) of Serum Cholesterol Level (serum cholesterol level [2]; 50 mg/kg/day)
CC(=O)Oc1ccccc1C(=O)O [Acetylsalicylic Acid, reference compound]	22%	65%	268%										
CCOC(=O)Cc1nc(-c2ccc(Cl)c(Cl)c2)oc1OCC [C, ethyl 2-(3,4-dichlorophenyl)-5-ethoxy-4-oxazoleacetate]				18%	35%	2000 mg/kg	> 4000 mg/kg						
CCOc1oc(-c2ccc(Cl)cc2)nc1CC(=O)OCc1cccnc1 [B, 3-pyridylmethyl 2-p-chlorophenyl-5-ethoxy-4-oxazoleacetate]						> 4000 mg/kg	> 4000 mg/kg	22%	41%	43%			
CCOc1oc(-c2ccncc2)nc1CCC(=O)O [D, 3-[2-(4-pyridyl)-5-ethoxy-4-oxazole]propionic acid]	107%	209%	321%			> 2000 mg/kg	> 2000 mg/kg				439%		
CCOC(=O)C(C)(C)Oc1ccc(Cl)cc1 [Clofibrate, reference compound]					10%	1500 mg/kg	2300 mg/kg	31%	35%	16%	38%	0%	
CCOC(=O)Cc1nc(-c2ccc(Cl)cc2)oc1OCC [Compound A, ethyl 2-p-chlorophenyl-5-ethoxy-4-oxazoleacetate]					32%	4000 mg/kg	> 4000 mg/kg	25%	45%	41%		21%	26%
